# According to patent US20260256799A1, “INHIBITORS FOR TREATING SOLID TUMOURS” (UNIVERSITY OF SOUTHAMPTON, priority 2023, published 2026):
# System: MLF
# Assay: TGF-β1-induced myofibroblast differentiation of mouse lung fibroblasts
# Assay type: cell-based
# Method: Human NSCLC cell line H441, HNSCC SCC25, murine cancer cell line TC-1 (lung), MC38 (colon) and human fetal foreskin fibroblasts HFFF2 were purchased from European Collection of Cell Cultures (Public Health England) or ATCC; HNSCC 5PT [32] were provided by l. Mackenzie (Queen Mary University of London, UK). HEK-293T cells and IMR90 lung fibroblasts were provided by Jesus Gil (Imperial College, London, UK). SCC25 were grown in Ham's F12:DMEM (1:1 ratio) medium with 10% FBS (Calbiochem) and 292 μg/ml L-Glutamine. 5PT were cultured in keratinocyte growth medium. HEK-293T, H441, MC38, HFFF2, IMR90 and primary fibroblasts were grown in DMEM supplemented with 10% FBS and 292 μg/ml L-Glutamine. Primary fibroblasts were isolated as previously used at early passage (p1-10). C57BL/6 murine normal lung and colon fibroblasts (MLF and MCF respectively) were grown at 3% oxygen. TC-1 were cultured in RPMI supplemented with 10% FBS and 292 μg/ml L-Glutamine. All cell cultures were routinely tested for mycoplasma contamination. All cells were cultured using standard cell culture plates/flasks (Corning). HFFF2 or IMR90 cells were transfected with 25 μM On-Target pool siRNA (Thermo Scientific/Dharmacon) using Oligofectamine reagent (Life Technologies) as described. Stable knockdown was performed using retro/lentiviral mediated transduction of shRNA plasmids, as previously described followed by cell selection using 1 μg/ml puromycin for 5-7 days. NOX4-inducible HEK-293 cells (kindly provided by Vincent Jaquet) were treated with 1 μg/ml doxycycline. […]
# 5×10^3 HFFF2 were plated on permanox chamber slides (Thermo Scientific) and treated as described in the figure legends. […] Images were taken using an Olympus IX81 fluorescence microscope and Xcellence program. DNA Damage foci were quantified from at least 8 non-overlapping FoV with ~300 cells in total per condition. […] SMA and Collagen 1A1 quantification was performed using Fiji. […]
# [1] = AZD0156 0.5 μM + TGF-β1 for a week, Q-RT-PCR
structure (smiles),measurement,setting,value
CN(C)CCCOc1ccc(-c2ccc3ncc4c(c3c2)n(C2CCOCC2)c(=O)n4C)cn1 [AZD0156],myofibroblast differentiation in vitro,"AZD0156 0.5 μM + TGF-β1, 72 hours (Western) or 7 days (Collagen1, Fibronectin)",suppressed
same,effect on iCAF genes,[1],gene-specific and generally non-significant
same,myoCAF genes expression,[1],significantly down-regulated
